B1: EngEF (Enterococcus faecalis V583) (protein)
chain: MKHGKIKRFSTLTLLASATILVPLSTSAEETTNSSTETSSSMVEPTATEEKLWQSDFPGGKTGEWQDVIGKTNRELAGESLAISRDAAAGNNAVSLNLDSPKLADGEVETKFKYTAGSGRTGVIIRGNTKDSWVFVGYNANGKWLVESPNSWNDSISGPTLNEDTNYLLKVRYVGEKITIWLNTTLIYEGEPVLANGDKIPTEAGHVGVRLWYDKKIVNYDYFKNGPVDSIPEIVPEVTQIAPVKVFTKIGVAPKLPKQVKVTYNTGKEANEAVRWNEIDPDAYKEPGTFEVDGTLENTNIKAKASIVVAKDNEAEKGDKISSADLTAVVDPQFPRIIRYEDPQSNQVIFNGQHEKIDQVMIDGKAYKATAEKQKSEANQAVYNVAVPEIGLRFTTTLTVSEGQELAMKLSDIREEGTKIHTISIPNQGLISVNSTDEGATFAGVVMNTGTNANNGNKNGDTIQDLTTTSQEETKKYMYGFLNTANYAASFWTNAYGDGSVDGSDNNRIHKQTKEAATGFVTTLSSGAWTYRPFDAPEDYTTGETPEVKVKFSKDSNDDNRVDWQDAAIGFRSIMNNPMGAEKVPELVNQRIPFNFASQATNPFLVTLDESKRIYNLTDGLGQMNLLKGYQNEGHDSAHPDYGAIGQRPGGEQALNQLIDEGHKLNAVFGVHINDTESYPEAKGFNEELVDPTKRGWDWLDPSYFIKQRPDTLSGRRYERFKELKQKAPNLDYIYVDVWGNQGESGWASRQLSKEINSLGWFTTNEFPNALEYDSVWNHWSAEKDYGGTTTKGFNSTIVRFIRNHQKDTWIISDNPLLGGAEFEAYEGWVGKTNFNTYRQKTFAINVPTKFLQHYQITNWETTTAADGQIYGTIKLANGAEKVTVTQADANSPRSITLNETEVLKGDAYLLPWNVNGQDKLYHWNPKGGTSTWSLDKKMQGKTNLHLYELTDQGRIDKGAIATTNNQVTIQAEANTPYVIAEPDSIEPMTFGTGTPFKDPGFNEANTLKNNWKVFRGDGEVKKDANGDYVFSSEKERTEIKQDINLPKPGKYSLYLNTETHDRKATVTVKIGGKKYTRTVNNSVAQNYIQADINHTSRKNPQYMQNMRIDFEIPDNAKKGSVTLAVDKGNSVTKFDDLRIVERQTDIMNPDKQTVIKQDFEDTQAVGLYPFVKGSAGGVEDPRIHLSERNEPYTQYGWNGNLVSDVLEGNWSLKAHKQGAGLMLQTIPQNIKFEPNKKYTVQFDYQTDGENVFTAGTINGELKNNNDFKPVGELTSTAADGQTKHYEAEIIGDASGNTTFGIFTTGADKDFIMDNFTVTVESKK

Columns and labels:
[1] = target: EngSP (Streptococcus pneumoniae, UniProt Q2MGH6); assay: steady-state kinetics, pNP release at […] nm; assay type: biochemical; settings: 50 mM sodium phosphate pH 7.5, 5 mM MgCl2, 25°C
[2] = target: EngCP (Clostridium perfringens, UniProt A0A0H2YQ40); assay type: biochemical
[3] = tested on: EngAL; assay: steady-state kinetics, pNP release at […] nm; assay type: biochemical, Alcaligenes sp.; settings: 50 mM sodium phosphate pH 7.5, 5 mM MgCl2, 25°C
[4] = target: T1, EngPA (Cutibacterium acnes, UniProt A0ABM7H013); assay: steady-state kinetics, pNP release at […] nm; assay type: biochemical; settings: 50 mM sodium phosphate pH 7.5, 5 mM MgCl2, 25°C
T1 sequence (A0ABM7H013 1-1321): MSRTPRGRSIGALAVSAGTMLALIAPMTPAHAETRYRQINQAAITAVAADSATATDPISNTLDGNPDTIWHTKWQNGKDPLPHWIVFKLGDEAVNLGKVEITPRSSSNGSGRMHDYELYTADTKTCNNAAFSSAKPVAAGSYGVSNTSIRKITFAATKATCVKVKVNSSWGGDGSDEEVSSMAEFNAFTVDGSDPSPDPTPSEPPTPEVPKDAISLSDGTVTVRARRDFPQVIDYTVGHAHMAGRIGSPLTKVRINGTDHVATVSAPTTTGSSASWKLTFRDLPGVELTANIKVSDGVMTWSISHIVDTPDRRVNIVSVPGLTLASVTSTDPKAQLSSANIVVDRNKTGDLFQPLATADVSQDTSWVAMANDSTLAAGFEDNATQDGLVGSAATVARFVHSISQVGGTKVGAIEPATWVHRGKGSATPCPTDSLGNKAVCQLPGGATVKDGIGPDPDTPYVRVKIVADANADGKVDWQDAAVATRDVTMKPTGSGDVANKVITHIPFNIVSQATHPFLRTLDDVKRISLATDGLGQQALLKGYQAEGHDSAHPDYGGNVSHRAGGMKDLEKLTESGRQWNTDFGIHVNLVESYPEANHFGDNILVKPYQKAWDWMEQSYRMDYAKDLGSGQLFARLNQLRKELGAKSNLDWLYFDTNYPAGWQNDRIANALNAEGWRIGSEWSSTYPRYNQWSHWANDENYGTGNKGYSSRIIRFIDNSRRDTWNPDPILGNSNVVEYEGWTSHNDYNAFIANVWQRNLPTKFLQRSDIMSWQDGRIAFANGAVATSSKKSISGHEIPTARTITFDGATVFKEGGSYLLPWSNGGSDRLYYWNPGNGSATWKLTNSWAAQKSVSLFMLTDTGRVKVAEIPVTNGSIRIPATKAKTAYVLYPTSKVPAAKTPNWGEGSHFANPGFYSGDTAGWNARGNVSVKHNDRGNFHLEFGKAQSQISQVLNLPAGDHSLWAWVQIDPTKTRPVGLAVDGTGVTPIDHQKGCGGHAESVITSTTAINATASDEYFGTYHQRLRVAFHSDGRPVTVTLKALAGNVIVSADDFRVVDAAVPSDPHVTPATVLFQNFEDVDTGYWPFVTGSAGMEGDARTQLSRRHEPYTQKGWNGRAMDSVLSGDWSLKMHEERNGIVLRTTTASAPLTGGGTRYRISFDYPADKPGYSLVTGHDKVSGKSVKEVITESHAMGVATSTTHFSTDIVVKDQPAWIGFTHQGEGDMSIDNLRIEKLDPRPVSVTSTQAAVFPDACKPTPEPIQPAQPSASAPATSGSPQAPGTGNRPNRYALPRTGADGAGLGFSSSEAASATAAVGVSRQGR

[5] = target: T2, EngEF (Enterococcus faecalis, UniProt Q833X5); assay: steady-state kinetics, pNP release at […] nm; settings: 50 mM sodium phosphate pH 7.5, 5 mM MgCl2, 25°C
T2 sequence (Q833X5 1-1324): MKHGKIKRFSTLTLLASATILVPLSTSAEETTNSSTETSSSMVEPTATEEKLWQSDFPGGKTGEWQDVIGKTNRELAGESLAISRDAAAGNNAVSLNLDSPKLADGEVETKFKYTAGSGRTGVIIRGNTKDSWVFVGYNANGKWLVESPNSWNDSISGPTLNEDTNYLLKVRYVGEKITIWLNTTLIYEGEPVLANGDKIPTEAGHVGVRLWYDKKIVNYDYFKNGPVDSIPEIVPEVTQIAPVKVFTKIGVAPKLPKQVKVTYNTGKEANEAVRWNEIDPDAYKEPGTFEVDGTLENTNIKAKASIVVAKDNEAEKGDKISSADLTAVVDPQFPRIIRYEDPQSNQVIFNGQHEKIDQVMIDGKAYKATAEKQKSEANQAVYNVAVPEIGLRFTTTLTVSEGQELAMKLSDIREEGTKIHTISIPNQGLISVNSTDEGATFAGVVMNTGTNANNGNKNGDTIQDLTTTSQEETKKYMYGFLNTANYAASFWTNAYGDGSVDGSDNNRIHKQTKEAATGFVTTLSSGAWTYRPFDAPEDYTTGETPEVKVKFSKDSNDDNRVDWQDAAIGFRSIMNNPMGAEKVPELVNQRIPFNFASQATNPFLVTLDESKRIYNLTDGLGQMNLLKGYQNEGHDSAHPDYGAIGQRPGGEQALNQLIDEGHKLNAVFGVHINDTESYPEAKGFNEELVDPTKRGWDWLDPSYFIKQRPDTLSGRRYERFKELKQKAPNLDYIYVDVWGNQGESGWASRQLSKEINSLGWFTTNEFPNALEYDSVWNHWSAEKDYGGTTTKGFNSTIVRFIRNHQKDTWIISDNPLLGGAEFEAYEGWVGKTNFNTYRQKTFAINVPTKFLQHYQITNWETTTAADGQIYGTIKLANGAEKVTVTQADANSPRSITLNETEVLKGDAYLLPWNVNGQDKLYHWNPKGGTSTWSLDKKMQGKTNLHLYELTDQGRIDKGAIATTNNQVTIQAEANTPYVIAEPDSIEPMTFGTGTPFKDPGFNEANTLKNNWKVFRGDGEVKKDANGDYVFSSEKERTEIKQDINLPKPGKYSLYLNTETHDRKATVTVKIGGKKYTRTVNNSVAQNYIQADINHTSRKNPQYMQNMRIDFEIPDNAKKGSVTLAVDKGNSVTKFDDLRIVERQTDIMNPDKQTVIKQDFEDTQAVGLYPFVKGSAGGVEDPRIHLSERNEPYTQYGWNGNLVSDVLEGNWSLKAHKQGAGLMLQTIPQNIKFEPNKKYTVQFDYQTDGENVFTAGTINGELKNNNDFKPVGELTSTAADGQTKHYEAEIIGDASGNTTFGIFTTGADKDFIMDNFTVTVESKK

[6] = substrate: CC(=O)N[C@H]1[C@H](O[C@H]2[C@@H](O)[C@@H](CO)O[C@H](Oc3ccc([N+](=O)[O-])cc3)[C@@H]2NC(C)=O)O[C@H](CO)[C@@H](O)[C@@H]1O; assay: purified protein; settings: 50 mM sodium phosphate pH 7.5, 5 mM MgCl2, 25°C

| Molecule | Km [1] | Km [2] | Km [3] | Km [4] | Km [5] | Km [6] | kcat [6] |
| --- | --- | --- | --- | --- | --- | --- | --- |
| CC(=O)N[C@H]1[C@@H](Oc2ccc([N+](=O)[O-])cc2)O[C@H](CO)[C@H](O)[C@@H]1O[C@@H]1O[C@H](CO)[C@H](O)[C@H](O)[C@H]1O [Galβ1,3GalNAcα1pNP] | 40.4 µM | 70.9 µM | 33.9 µM | 3.78 µM | 47.9 µM | – | – |
| B1 | – | – | – | – | – | 20.03 µM | 9.43 s⁻¹ |

From article PMC2553423 (Glycobiology, 2008)
